Experimental data reported in patent US6300470A, “Antibiotic cryptdin peptides and methods of their use” (priority 1999, dated 2001).

Tests used:
Format in all cases: cell-based
E. coli ML35 = experiment: radial diffusion assay, E. coli ML35; settings: 10 mM PIPES
Method: Purified cryptdin peptides were dissolved at 3 to 300 μg/ml in 0.010% acetic acid and activity was examined against E. coli ML35 (ATCC). In the radial diffusion assay, […] peptide solution was transferred into wells formed in plates of 1% agarose buffered with 10 mM PIPES (pH 7.4) and containing 1×10^6 log-phase bacteria grown in trypticase soy broth. After 3 hr at 37° C., the plates were overlayed with 0.8w agarose containing 2× trypticase soy broth and incubated overnight. The antibacterial activities of cryptdin peptides was compared with the activity of rabbit neutrophil defensin NP-1, which was purified from peritoneal exudates as described by Selsted et al. (J. Biol. Chem. 260:4579-4584 (1985), which is incorporated herein by reference). Antibacterial activity was determined by measuring the diameter of learing around each well and plotted as a function of peptide concentration.

S. aureus = experiment: radial diffusion assay, S. aureus growth inhibition; settings: higher concentrations (100 μg/ml and 300 μg/ml)
[1] = test system: wild type S. typhimurium (ATCC 10428); experiment: agar radial diffusion assay, wild type S. typhimurium; settings: HEPES or PIPES buffer; 100 μg/ml or 300 μg/ml
Method: (§1) FIGS. 7.A. and 7.B. depict the antimicrobial activity of mouse cryptain 1 (SEQ ID NO: 6). Samples of purified natural mouse cryptdin 1 (FIG. 7.A.) or rabbit NP-1 (FIG. 7.B.) were dissolved in 0.01% acetic acid and pipetted into wells produced in a 0.6, agarose/0.3% tryptone plate containing 1×10^6 log phase bacterial cells. After incubation at 37° C. for 18 hr, antimicrobial activity was evaluated by measuring the diameters of the clear zones. Closed circles denote wild type S. typhimurium; open circles denote the phoP^- mutant. […]
(§2) Antibacterial activity was measured in an agar radial diffusion assay (Lehrer et al., supra, 1991b) using wild type S. typhimurium (ATCC 10428) or an isogenic phoP mutant of S. typhimurium (strain CS015 phoP102::Tn10d-Cam, Miller et al., supra, 1989). […]
(§3) Purified cryptdin peptides were dissolved at 3 to 300 μg/ml in 0.010% acetic acid and activity was examined against E. coli ML35 (ATCC). […] Antibacterial activity was determined by measuring the diameter of learing around each well and plotted as a function of peptide concentration.

[2] = test system: isogenic phoP mutant of S. typhimurium (strain CS015 phoP102::Tn10d-Cam); experiment: agar radial diffusion assay, phoP mutant S. typhimurium; settings: HEPES or PIPES buffer; 100 μg/ml or 300 μg/ml
Method: as §1, §2, §3

[3] = test system: wild type S. typhimuruim cells; experiment: bactericidal assay, wild type S. typhimurium; settings: 10 μg/ml
Method: (§4) In order to determine whether the effect of the cryptdin peptides against E. coli is bacteriostatic or bacteriocidal, bacterial killing was quantitated as a function of time. Bactericidal asgayg were performed by incubating 1-2×10^6 log-phase bacteria in 10 mM PIPES containing 10 μg peptide/ml. After incubation for 15 or 30 min at 37° C., aliquots were removed, serially diluted and plated on trypticase soy agar. Bactericidal activity was quantitated by counting colonies after overnight incubation at 37° C.
(§5) The bactericidal activity of rat cryptdin 1 also was examined. E. coli ML35 cells, S. areus 502A cells or mutant or wild type S. typhimuruim cells were incubated with various concentrations of rat cryptdin 1 or rabbit NP-1.

[4] = test system: mutant S. typhimuruim cells; experiment: bactericidal assay, mutant S. typhimurium
Method: as §4, §5

E. coli ML35 cells = experiment: bactericidal assay in suspension, E. coli
Method: as §4, §5

S. areus 502A cells = experiment: bactericidal assay, S. aureus 502A; settings: 10 μg/ml
Method: as §4, §5

Sequence	activity against E. coli ML35 relative to rabbit NP-1 (E. coli ML35; at concentration above 100 μg/ml)	inhibiting growth of S. aureus compared with same concentration of NP-1 (S. aureus)	inhibiting growth of wild type S. typhimurium compared with NP-1 [1]	preventing growth of mutant S. typhimurium compared with NP-1 [2]	killing of wild type S. typhimurium [3]	mutant S. typhimurium cells killed ([4]; 10 μg/ml)	killing of mutant S. typhimurium cells, rat cryptdin 1 compared with NP-1 ([4]; various concentrations)	E. coli cells killed (E. coli ML35 cells; 10 μg/ml)	killing of E. coli cells, rat cryptdin 1 compared with NP-1 (E. coli ML35 cells; various concentrations)	S. aureus cells killed (S. areus 502A cells)	activity against E. coli ML35 relative to NP-1 (E. coli ML35; compared at 100 μg/ml and 300 μg/ml)
LSKKLICYCRIRGCKRRERVFGTCRNLFLTFVFCC [cryptdin 5]	approximately 5 ×	more effective than the same concentration of NP-1	more effective than the same concentration of NP-1	more effective than the same concentration of NP-1							
LKQCHCRKFCRPYEKAEGSCRPGLFIKRKICCIQQWTPG [rat cryptdin 1]					relatively ineffective	greater than 99%	more effective than NP-1	greater than 99%	more effective than NP-1	about 90%	
GLLCYCRKGHCKRGERVRGTCGIRFLYCCPR [cryptdin 4]		more effective than the same concentration of NP-1	more effective than the same concentration of NP-1	more effective than the same concentration of NP-1							at least 50 ×
